Source: patent US20260347364A1, “PYRAZOLO[4,3-F]QUINAZOLINE DERIVATIVES AS MODULATORS OF G12D MUTANT KRAS USEFUL FOR THE TREATMENT OF CANCER” (JAZZ PHARMACEUTICALS IRELAND LTD., priority 2023, published 2026)

How the values were obtained:
KRAS G12D = target: T1, KRAS G12D (Homo sapiens, UniProt P01116, G12D); assay: HTRF nucleotide exchange assay, KRAS G12D; type: biochemical; conditions: class symbols; for IC50: HTRF nucleotide exchange assay (NEA)
T1 construct: aa1-188 KRAS WT, HRAS WT, NRAS WT, or KRAS containing the G12D
Description: (§1) HTRF Nucleotide Exchange Assay Method
(§2) The capacity of compounds to bind KRAS G12D, other KRAS mutants and wildtype RAS isoforms was quantified using a HTRF nucleotide exchange assay. Recombinant human RAS protein (2 nM; aa1-188 KRAS WT, HRAS WT, NRAS WT, or KRAS containing the G12D, G13D or Q61H amino acid substitutions, or 4 nM KRAS; aa1-188 containing the G12V, G12C, G12A or G12S amino acid substitution, an N-terminal 6× His-tag and leader sequence), and 2 nM Europium-labeled anti-6× His antibody were mixed in assay buffer (10 mM HEPES pH 7.3, 150 mM NaCl, 5 mM MgCl2, 0.05% BSA, 0.0025% NP-40 and 100 mM KF) with various concentrations of compound in a 384-well plate and a volume of 5 μL. After a 60-minute incubation at room temperature, 5 μl of 200 nM EDA-GTP-DY647P1 (diluted in assay buffer) was added to the plate. Following 30-minute incubation at room temperature, time-resolved fluorescence was measured on a PerkinElmer Envision plate reader. DMSO (0.3%) and unlabeled GDP (1 μM) or equivalent tool compound were used to generate the Max and Min assay signals, respectively. Data was analysed using a four-parameter logistic model to calculate IC50 values, with at least two independent replicates were performed for each compound. The results are presented as IC50s in Table 29 where “A” corresponds to an IC50 ≤10 nM, “B” to an IC50 >10 nM up to 100 nM, “C” is >100 nM up to 10 μM, “D” represents <49% inhibition at 10 μM and ND=not determined: […]

KRAS WT = target: T2, KRAS WT (Homo sapiens, UniProt P01116); assay: HTRF nucleotide exchange assay, KRAS WT; type: biochemical; conditions: class symbols; for IC50: HTRF nucleotide exchange assay (NEA)
T2 construct: aa1-188 KRAS WT
Description: as §1, §2

IC50 (KRAS G12D) [nM] | IC50 (KRAS WT) [nM] | KRAS^WT NEA (KRAS WT) | KRAS^G12D NEA (KRAS G12D) | Structure (SMILES)
≤ 10 | ≤ 10 | – | – | CCc1c(F)ccc2cc(O)cc(-c3c(F)c4nc(OC[C@@]56CCCN5C[C@H](F)C6)nc(N5C[C@H]6COC[C@H]6C5)c4c4cn(C)nc34)c12 [Example 174, 5-ethyl-6-fluoro-4-[5-fluoro-2-methyl-9-[(3aR,6aS)-1,3,3a,4,6,6a-hexahydrofuro[3,4-c]pyrrol-5-yl]-7-[[(2R,8S)-2-fluoro-1,2,3,5,6,7-hexahydropyrrolizin-8-yl]methoxy]pyrazolo[4,3-f]quinazolin-4-yl]naphthalen-2-ol]
≤ 10 | ≤ 10 | – | – | CCNC(=O)c1cc2n(n1)CCCN(c1nc(OC[C@@]34CCCN3C[C@H](F)C4)nc3c(F)c(-c4cc(O)cc5ccc(F)c(CC)c45)c4nn(C)cc4c13)C2 [Example 196, N-ethyl-5-[4-(8-ethyl-7-fluoro-3-hydroxy-1-naphthyl)-5-fluoro-7-[[(2R,8S)-2-fluoro-1,2,3,5,6,7-hexahydropyrrolizin-8-yl]methoxy]-2-methyl-pyrazolo[4,3-f]quinazolin-9-yl]-4,6,7,8-tetrahydropyrazolo[1,5-a][1,4]diazepine-2-carboxamide]
10 to 100 | ≤ 10 | – | – | CCc1c(F)ccc2cc(O)cc(-c3c(F)c4nc(OC[C@@]56CCCN5C[C@H](F)C6)nc(N5CCC(C#N)CC5)c4c4cn(C)nc34)c12 [Example 111, 1-[4-(8-ethyl-7-fluoro-3-hydroxy-1-naphthyl)-5-fluoro-2-methyl-7-[[(2R,8S)-2-fluoro-1,2,3,5,6,7-hexahydropyrrolizin-8-yl]methoxy]pyrazolo[4,3-f]quinazolin-9-yl]piperidine-4-carbonitrile]
≤ 10 | ≤ 10 | – | – | CCc1c(F)ccc2cc(O)cc(-c3c(F)c4nc(OC[C@@H]5C[C@@H](F)CN5)nc(N5CCOCC(C)(O)C5)c4c4cn(C)nc34)c12 (stereo partly drawn) [Example 150, 4-[4-(8-ethyl-7-fluoro-3-hydroxy-1-naphthyl)-5-fluoro-2-methyl-7-[[(2S,4R)-4-fluoropyrrolidin-2-yl]methoxy]pyrazolo[4,3-f]quinazolin-9-yl]-6-methyl-1,4-oxazepan-6-ol]
≤ 10 | ≤ 10 | – | – | CCc1c(F)ccc2cc(O)cc(-c3c(F)c4nc(OC[C@@]56CCCN5C[C@H](F)C6)nc(N5CCCn6nc(C(=O)N7CCCC7)cc6C5)c4c4cn(C)nc34)c12 [Example 197, [5-[4-(8-ethyl-7-fluoro-3-hydroxy-1-naphthyl)-5-fluoro-7-[[(2R,8S)-2-fluoro-1,2,3,5,6,7-hexahydropyrrolizin-8-yl]methoxy]-2-methyl-pyrazolo[4,3-f]quinazolin-9-yl]-4,6,7,8-tetrahydropyrazolo[1,5-a][1,4]diazepin-2-yl]-pyrrolidin-1-yl-methanone]
≤ 10 | 10 to 100 | – | – | CCc1c(F)ccc2cc(O)cc(-c3cc4nc(OCC5(CN6CCCC6)CC5)nc(N5CCCn6nc(C(=O)N(C)C)cc6C5)c4c4cn(C)nc34)c12 [Example 52]
≤ 10 | 100 to 10000 | – | – | CCc1c(F)ccc2cc(O)cc(-c3c(F)c4nc(OCC56COC(COC)(C5)C6)nc(N5CC6CCC(C5)N6)c4c4cn(C)nc34)c12 [Example 169, 4-[9-(3,8-diazabicyclo[3.2.1]octan-3-yl)-5-fluoro-7-[[1-(methoxymethyl)-2-oxabicyclo[2.1.1]hexan-4-yl]methoxy]-2-methyl-pyrazolo[4,3-f]quinazolin-4-yl]-5-ethyl-6-fluoro-naphthalen-2-ol]
≤ 10 | ≤ 10 | – | – | CCc1c(F)ccc2cc(O)cc(-c3c(F)c4nc(OC[C@@H]5CCCN5C)nc(N5CCOCC(C)(O)C5)c4c4cn(C)nc34)c12 (stereo partly drawn) [Example 154, 4-[4-(8-ethyl-7-fluoro-3-hydroxy-1-naphthyl)-5-fluoro-2-methyl-7-[[(2S)-1-methylpyrrolidin-2-yl]methoxy]pyrazolo[4,3-f]quinazolin-9-yl]-6-methyl-1,4-oxazepan-6-ol]
≤ 10 | 100 to 10000 | – | – | CCc1c(F)ccc2cc(O)cc(-c3cc4nc(OC[C@@]56CCCN5C[C@H](F)C6)nc(N5CCCn6nc(C(=O)N(C)C)cc6C5)c4c4cn(CC(F)(F)F)nc34)c12 [Example 78, 5-[4-(8-ethyl-7-fluoro-3-hydroxy-1-naphthyl)-7-[[(2R,8S)-2-fluoro-1,2,3,5,6,7-hexahydropyrrolizin-8-yl]methoxy]-2-(2,2,2-trifluoroethyl)pyrazolo[4,3-f]quinazolin-9-yl]-N,N-dimethyl-4,6,7,8-tetrahydropyrazolo[1,5-a][1,4]diazepine-2-carboxamide]
100 to 10000 | – | D (<49% inhibition at 10 μM) | – | CCc1c(F)ccc2cc(O)cc(-c3cc4nc(OC[C@@]56CCCN5C[C@H](F)C6)nc(N5CC(C(C)(C)O)C5)c4c4cn(C)nc34)c12 [Example 128, 5-ethyl-6-fluoro-4-[9-[3-(1-hydroxy-1-methyl-ethyl)azetidin-1-yl]-2-methyl-7-[[(2R,8S)-2-fluoro-1,2,3,5,6,7-hexahydropyrrolizin-8-yl]methoxy]pyrazolo[4,3-f]quinazolin-4-yl]naphthalen-2-ol]
10 to 100 | 10 to 100 | – | – | C#CC1(O)CCCN(c2nc(OC[C@@]34CCCN3C[C@H](F)C4)nc3cc(-c4cc(O)cc5ccc(F)c(CC)c45)c4nn(C)cc4c23)C1 (stereo partly drawn) [Example 129, 1-[4-(8-ethyl-7-fluoro-3-hydroxy-1-naphthyl)-2-methyl-7-[[(2R,8S)-2-fluoro-1,2,3,5,6,7-hexahydropyrrolizin-8-yl]methoxy]pyrazolo[4,3-f]quinazolin-9-yl]-3-ethynyl-piperidin-3-ol]
10 to 100 | 10 to 100 | – | – | CCc1c(F)ccc2cc(O)cc(-c3cc4nc(OC[C@@]56CCCN5C[C@H](F)C6)nc(N5CCOC[C@](C)(O)C5)c4c4cn(C)nc34)c12 [Example 41, (6R)-4-[4-(8-ethyl-7-fluoro-3-hydroxy-1-naphthyl)-2-methyl-7-[[(2R,8S)-2-fluoro-1,2,3,5,6,7-hexahydropyrrolizin-8-yl]methoxy]pyrazolo[4,3-f]quinazolin-9-yl]-6-methyl-1,4-oxazepan-6-ol]
– | 100 to 10000 | – | D (<49% inhibition at 10 μM) | CCc1c(F)ccc2cc(O)cc(-c3cc4nc(OC[C@@]56CCCN5C[C@H](F)C6)nc(N5CCCC(C)(O)CC5)c4c4cn(C)nc34)c12 (stereo partly drawn) [Example 29, 1-[4-(8-ethyl-7-fluoro-3-hydroxy-1-naphthyl)-7-[[(2R,8S)-2-fluoro-1,2,3,5,6,7-hexahydropyrrolizin-8-yl]methoxy]-2-methyl-pyrazolo[4,3-f]quinazolin-9-yl]-4-methyl-azepan-4-ol]
≤ 10 | ≤ 10 | – | – | CCc1c(F)ccc2cc(O)cc(-c3c(F)c4nc(OCC5(C)CC(O)CN5)nc(N5CCOCC(C)(O)C5)c4c4cn(C)nc34)c12 (stereo not drawn) [Example 152, 4-[4-(8-ethyl-7-fluoro-3-hydroxy-1-naphthyl)-5-fluoro-7-[(4-hydroxy-2-methyl-pyrrolidin-2-yl)methoxy]-2-methyl-pyrazolo[4,3-f]quinazolin-9-yl]-6-methyl-1,4-oxazepan-6-ol]
≤ 10 | ≤ 10 | – | – | CCc1c(F)ccc2cc(O)cc(-c3c(F)c4nc(OC[C@]5(C)CCCN5C)nc(N5CCOCC(C)(O)C5)c4c4cn(C)nc34)c12 (stereo partly drawn) [Example 161, 4-[4-(8-ethyl-7-fluoro-3-hydroxy-1-naphthyl)-5-fluoro-2-methyl-7-[[(2S)-1,2-dimethylpyrrolidin-2-yl]methoxy]pyrazolo[4,3-f]quinazolin-9-yl]-6-methyl-1,4-oxazepan-6-ol]
≤ 10 | – | – | – | CCc1c(F)ccc2cc(O)cc(-c3c(C)c4nc(OCC5(CF)COC5)nc(N5CC6CCC(C5)N6)c4c4cn(C)nc34)c12 [Example 247, 4-[9-(3,8-diazabicyclo[3.2.1]octan-3-yl)-7-[[3-(fluoromethyl)oxetan-3-yl]methoxy]-2,5-dimethyl-pyrazolo[4,3-f]quinazolin-4-yl]-5-ethyl-6-fluoro-naphthalen-2-ol]
≤ 10 | – | – | – | CCc1c(F)ccc2cc(O)cc(-c3c(F)c4nc(OCC5(CN6CC(O)C(F)(F)C6)CC5)nc(N5CCOCC(C)(O)C5)c4c4cn(C)nc34)c12 (stereo not drawn) [Example 237, 4-[7-[[1-[(3,3-difluoro-4-hydroxy-pyrrolidin-1-yl)methyl]cyclopropyl]methoxy]-4-(8-ethyl-7-fluoro-3-hydroxy-1-naphthyl)-5-fluoro-2-methyl-pyrazolo[4,3-f]quinazolin-9-yl]-6-methyl-1,4-oxazepan-6-ol]
≤ 10 | – | – | – | CCc1c(F)ccc2cc(O)cc(-c3c(F)c4nc(OC[C@@H]5CCN5C)nc(N5CCC[C@@](C)(O)C5)c4c4cn(C)nc34)c12 [Example 239, (3R)-1-[4-(8-ethyl-7-fluoro-3-hydroxy-1-naphthyl)-5-fluoro-2-methyl-7-[[(2S)-1-methylazetidin-2-yl]methoxy]pyrazolo[4,3-f]quinazolin-9-yl]-3-methyl-piperidin-3-ol]
